Reference: ChEMBL document CHEMBL2375302, “Synthesis, antimicrobial, antiquorum-sensing, antitumor and cytotoxic activities of new series of fused [1,3,4]thiadiazoles” (Eur J Med Chem, 2013)
Converted amounts (≈) assume the structure as drawn.

Assays:
KM12 = assay: Growth inhibition of human KM12 cells at 10 uM after 48 hrs by coulter counter analysis relative to control; format: functional; conditions: KM12, 48 h, read-out: GI
NCI-H23 = assay: Growth inhibition of human NCI-H23 cells at 10 uM after 48 hrs by coulter counter analysis relative to control; format: functional; conditions: NCI-H23, 48 h, read-out: GI
SW-620 = assay: Growth inhibition of human SW620 cells at 10 uM after 48 hrs by coulter counter analysis relative to control; format: functional; conditions: SW-620, 48 h, read-out: GI
SNB-19 = assay: Growth inhibition of human SNB19 cells at 10 uM after 48 hrs by coulter counter analysis relative to control; format: functional; conditions: SNB-19, 48 h, read-out: GI
MDA-MB-231 = assay: Growth inhibition of human MDA-MB-231 cells at 10 uM after 48 hrs by coulter counter analysis relative to control; format: functional; conditions: MDA-MB-231, 48 h, read-out: GI
SF-268 = assay: Growth inhibition of human SF268 cells at 10 uM after 48 hrs by coulter counter analysis relative to control; format: functional; conditions: SF-268, 48 h, read-out: GI
Candida albicans = assay: Antifungal activity against Candida albicans at 5 mg/mL after 48 hrs; format: functional; conditions: read-out: DIZ
[1] = Growth inhibition of human EKVX cells at 10 uM after 48 hrs by coulter counter analysis relative to control; format: functional; conditions: read-out: GI
MCF7 = assay: Growth inhibition of human MCF7 cells at 10 uM after 48 hrs by coulter counter analysis relative to control; format: functional; conditions: MCF7, 48 h, read-out: GI
A498 = assay: Growth inhibition of human A498 cells at 10 uM after 48 hrs by coulter counter analysis relative to control; format: functional; conditions: A498, 48 h, read-out: GI
LOX IMVI = assay: Growth inhibition of human LOXIMVI cells at 10 uM after 48 hrs by coulter counter analysis relative to control; format: functional; conditions: read-out: GI
[2] = Toxicity against brine shrimp larvae assessed as mortality at 1000 ug/mL after 24 hrs by binocular microscopic analysis relative to control; format: organism-based; conditions: artemia salina, in vivo
HCT-15 = assay: Growth inhibition of human HCT15 cells at 10 uM after 48 hrs by coulter counter analysis relative to control; format: functional; conditions: HCT-15, 48 h, read-out: GI
SK-OV-3 = assay: Growth inhibition of human SKOV3 cells at 10 uM after 48 hrs by coulter counter analysis relative to control; format: functional; conditions: SK-OV-3, 48 h, read-out: GI
SNB-75 = assay: Growth inhibition of human SNB75 cells at 10 uM after 48 hrs by coulter counter analysis relative to control; format: functional; conditions: SNB-75, 48 h, read-out: GI
SN12C = assay: Growth inhibition of human SN12C cells at 10 uM after 48 hrs by coulter counter analysis relative to control; format: functional; conditions: read-out: GI
ACHN = assay: Growth inhibition of human ACHN cells at 10 uM after 48 hrs by coulter counter analysis relative to control; format: functional; conditions: read-out: GI
NCI-H522 = assay: Growth inhibition of human NCI-H522 cells at 10 uM after 48 hrs by coulter counter analysis relative to control; format: functional; conditions: NCI-H522, 48 h, read-out: GI
[3] = Growth inhibition of human NCI-ADR-RES cells at 10 uM after 48 hrs by coulter counter analysis relative to control; format: functional; conditions: read-out: GI
Hs-578T = assay: Growth inhibition of human Hs578T cells at 10 uM after 48 hrs by coulter counter analysis relative to control; format: functional; conditions: read-out: GI
[4] = Toxicity against brine shrimp larvae assessed as mortality at 10 ug/mL after 24 hrs by binocular microscopic analysis relative to control; format: organism-based; conditions: artemia salina, in vivo
NCI-H460 = assay: Growth inhibition of human NCI-H460 cells at 10 uM after 48 hrs by coulter counter analysis relative to control; format: functional; conditions: NCI-H460, 48 h, read-out: GI
[5] = test system: Chromobacterium violaceum; assay: Antiquorum-sensing activity against Chromobacterium violaceum ATCC 12472 after 48 hrs; format: functional
OVCAR-3 = assay: Growth inhibition of human OVCAR3 cells at 10 uM after 48 hrs by coulter counter analysis relative to control; format: functional; conditions: OVCAR-3, 48 h, read-out: GI
[6] = (§1) Toxicity against brine shrimp larvae assessed as mortality after 24 hrs by binocular microscopic analysis; format: organism-based; conditions: artemia salina, in vivo
Artemia salina = assay: as §1; format: organism-based; conditions: in vivo, 24 h
Staphylococcus aureus = assay: Antibacterial activity against Staphylococcus aureus at 5 mg/mL after 24 hrs; format: functional; conditions: read-out: DIZ
UO-31 = assay: Growth inhibition of human UO31 cells at 10 uM after 48 hrs by coulter counter analysis relative to control; format: functional; conditions: UO-31, 48 h, read-out: GI
COLO 205 = assay: Growth inhibition of human COLO205 cells at 10 uM after 48 hrs by coulter counter analysis relative to control; format: functional; conditions: COLO 205, 48 h, read-out: GI
OVCAR-5 = assay: Growth inhibition of human OVCAR5 cells at 10 uM after 48 hrs by coulter counter analysis relative to control; format: functional; conditions: OVCAR-5, 48 h, read-out: GI
HOP-92 = assay: Growth inhibition of human HOP92 cells at 10 uM after 48 hrs by coulter counter analysis relative to control; format: functional; conditions: HOP-92, 48 h, read-out: GI
HL-60(TB) = assay: Growth inhibition of human HL-60(TB) cells at 10 uM after 48 hrs by coulter counter analysis relative to control; format: functional; conditions: HL-60, 48 h, read-out: GI
TK-10 = assay: Growth inhibition of human TK10 cells at 10 uM after 48 hrs by coulter counter analysis relative to control; format: functional; conditions: TK-10, 48 h, read-out: GI
DU-145 = assay: Growth inhibition of human DU145 cells at 10 uM after 48 hrs by coulter counter analysis relative to control; format: functional; conditions: DU-145, 48 h, read-out: GI
Aspergillus flavus = assay: Antifungal activity against Aspergillus flavus 3372 at 5 mg/mL after 48 hrs; format: functional; conditions: Aspergillus flavus, 3372, 48 h; read-out: DIZ
RXF 393 = assay: Growth inhibition of human RXF393 cells at 10 uM after 48 hrs by coulter counter analysis relative to control; format: functional; conditions: RXF 393, 48 h, read-out: GI
Malme-3M = assay: Growth inhibition of human MALME-3M cells at 10 uM after 48 hrs by coulter counter analysis relative to control; format: functional; conditions: read-out: GI
MDA-MB-435 = assay: Growth inhibition of human MDA-MB-435 cells at 10 uM after 48 hrs by coulter counter analysis relative to control; format: functional; conditions: MDA-MB-435, 48 h, read-out: GI
Aspergillus fumigatus = assay: Antifungal activity against Aspergillus fumigatus Af293 at 5 mg/mL after 48 hrs; format: functional; conditions: Af293, 48 h, read-out: DIZ
[7] = Toxicity against brine shrimp larvae assessed as mortality at 100 ug/mL after 24 hrs by binocular microscopic analysis relative to control; format: organism-based; conditions: artemia salina, in vivo
UACC-257 = assay: Growth inhibition of human UACC257 cells at 10 uM after 48 hrs by coulter counter analysis relative to control; format: functional; conditions: UACC-257, 48 h, read-out: GI

## N#Cc1cnc2sc(S(N)(=O)=O)nn2c1=O
KM12
  inhibition of growth at 10 µM: < 10%
NCI-H23
  inhibition of growth at 10 µM: < 10%
SW-620
  inhibition of growth at 10 µM: < 10%
SNB-19
  inhibition of growth at 10 µM: < 10%
MDA-MB-231
  inhibition of growth at 10 µM: < 10%
SF-268
  inhibition of growth at 10 µM: < 10%
Candida albicans
  zone of inhibition at 5000 µg/mL: 4 mm
[1]
  inhibition of growth at 10 µM: < 10%
MCF7
  inhibition of growth at 10 µM: < 10%
A498
  inhibition of growth at 10 µM: 34.2%
LOX IMVI
  inhibition of growth at 10 µM: 10.7%
[2]
  mortality at 24 h, 1000 ug/mL: 96.6%
HCT-15
  inhibition of growth at 10 µM: < 10%
SK-OV-3
  inhibition of growth at 10 µM: < 10%
SNB-75
  inhibition of growth at 10 µM: 10.3%
SN12C
  inhibition of growth at 10 µM: < 10%
ACHN
  inhibition of growth at 10 µM: < 10%
NCI-H522
  inhibition of growth at 10 µM: < 10%
[3]
  inhibition of growth at 10 µM: < 10%
Hs-578T
  inhibition of growth at 10 µM: 12.8%
[4]
  mortality at 24 h, 10 ug/mL: 50%
NCI-H460
  inhibition of growth at 10 µM: < 10%
[5]
  diameter of the inhibition zone (DIZ): 10 mm
OVCAR-3
  inhibition of growth at 10 µM: < 10%
[6]
  LC50 at 24 h: 432 µg/mL (≈ 1680 µM)
Artemia salina
  LC90: 777.87 µg/mL (≈ 3020 µM)
Staphylococcus aureus
  zone of inhibition at 5000 µg/mL: 18 mm
UO-31
  inhibition of growth at 10 µM: 10.5%
COLO 205
  inhibition of growth at 10 µM: < 10%
OVCAR-5
  inhibition of growth at 10 µM: < 10%
HOP-92
  inhibition of growth at 10 µM: 12.3%
HL-60(TB)
  inhibition of growth at 10 µM: 18.4%
TK-10
  inhibition of growth at 10 µM: < 10%
DU-145
  inhibition of growth at 10 µM: < 10%
Aspergillus flavus
  zone of inhibition at 5000 µg/mL: < 2 mm
RXF 393
  inhibition of growth at 10 µM: < 10%
Malme-3M
  inhibition of growth at 10 µM: 28%
MDA-MB-435
  inhibition of growth at 10 µM: < 10%
Aspergillus fumigatus
  zone of inhibition at 5000 µg/mL: < 2 mm
[7]
  mortality at 24 h, 100 ug/mL: 70%
UACC-257
  inhibition of growth at 10 µM: < 10%

## N#Cc1cnc2sc(S(N)(=O)=O)nn2c1=N
KM12
  inhibition of growth at 10 µM: < 10%
NCI-H23
  inhibition of growth at 10 µM: < 10%
SW-620
  inhibition of growth at 10 µM: < 10%
SNB-19
  inhibition of growth at 10 µM: < 10%
MDA-MB-231
  inhibition of growth at 10 µM: 12%
SF-268
  inhibition of growth at 10 µM: < 10%
Candida albicans
  zone of inhibition at 5000 µg/mL: < 2 mm
[1]
  inhibition of growth at 10 µM: < 10%
MCF7
  inhibition of growth at 10 µM: < 10%
A498
  inhibition of growth at 10 µM: 14.9%
LOX IMVI
  inhibition of growth at 10 µM: 15.1%
[2]
  mortality at 24 h, 1000 ug/mL: 96.6%
HCT-15
  inhibition of growth at 10 µM: < 10%
SK-OV-3
  inhibition of growth at 10 µM: < 10%
SNB-75
  inhibition of growth at 10 µM: < 10%
SN12C
  inhibition of growth at 10 µM: < 10%
ACHN
  inhibition of growth at 10 µM: < 10%
NCI-H522
  inhibition of growth at 10 µM: < 10%
[3]
  inhibition of growth at 10 µM: < 10%
Hs-578T
  inhibition of growth at 10 µM: < 10%
[4]
  mortality at 24 h, 10 ug/mL: 73.3%
NCI-H460
  inhibition of growth at 10 µM: < 10%
[5]
  diameter of the inhibition zone (DIZ): 11 mm
OVCAR-3
  inhibition of growth at 10 µM: < 10%
[6]
  LC50 at 24 h: 419 µg/mL (≈ 1640 µM)
Artemia salina
  LC90: 754.4 µg/mL (≈ 2940 µM)
Staphylococcus aureus
  zone of inhibition at 5000 µg/mL: < 2 mm
UO-31
  inhibition of growth at 10 µM: < 10%
COLO 205
  inhibition of growth at 10 µM: < 10%
OVCAR-5
  inhibition of growth at 10 µM: < 10%
HOP-92
  inhibition of growth at 10 µM: 20.3%
HL-60(TB)
  inhibition of growth at 10 µM: 29.3%
TK-10
  inhibition of growth at 10 µM: < 10%
DU-145
  inhibition of growth at 10 µM: < 10%
Aspergillus flavus
  zone of inhibition at 5000 µg/mL: < 2 mm
RXF 393
  inhibition of growth at 10 µM: < 10%
Malme-3M
  inhibition of growth at 10 µM: < 10%
MDA-MB-435
  inhibition of growth at 10 µM: < 10%
Aspergillus fumigatus
  zone of inhibition at 5000 µg/mL: < 2 mm
[7]
  mortality at 24 h, 100 ug/mL: 80%
UACC-257
  inhibition of growth at 10 µM: < 10%
